# Values of other authors in patent US9532875B2, “Combined space maintenance and bone regeneration system for the reconstruction of large osseous defects” (WILLIAM MARSH RICE UNIVERSITY, priority 2010, dated 2017).
# Tested on: susceptible species
# Details: reported
substance,measurement,value
Colistin sulfate salt,minimum inhibitory concentrations (MICs),0.5 to 5 µg/mL
